# From patent publication US20190000789A1, “COMPOSITION AND METHOD FOR TREATING INFECTIONS CAUSED BY VANCOMYCIN-RESISTANT INFECTIOUS AGENTS IN A SUBJECT” (priority 2015, published 2019)
# Read-outs that look alike come from different tables or passages of the source.
# Assays:
# S. coelicolor M145 = assay: MIC of vancomycin on MM agar plates with added D-Ala or L-Ala; assay type: cell-based, Streptomyces coelicolor; details: for MIC: Streptomyces coelicolor
# Procedure: The naturally vancomycin-resistant model organism S. coelicolor M145 was used as the initial test system. The strain was grown on solid minimal medium (MM) agar plates with increasing amounts of D-Ala and vancomycin. D-Ala was thereby added in concentrations of 5, 10 and 50 mM and the effect on the MIC of vancomycin assessed. As a first control, L-Ala was added and, as a second control, no amino acids were added. […] This was not altered when the culture media were supplemented with up to 50 mg/ml L-Ala (Table 1 and FIG. 6).
# (§1) Escherichia coli strains JM109 (Sambrook et al., 1989) and ET12567 (Kieser et al., 2000) were used for routine cloning procedures and for extracting non-methylated DNA, respectively. Cells of E. coli were grown in Luria-Berani broth (LB) at 37° C. Streptomyces coelicolor A3(2) M145 was the parent of all mutants described in this work. All media and routine Streptomyces techniques were carried out as described (Kieser et al., 2000). SFM (soy flour mannitol) agar plates were used for propagating S. coelicolor strains and to prepare spore suspensions. For liquid-grown cultures, S. coelicolor mycelia were grown in normal minimal media with phosphate (NMMP) supplemented with 1% (w/v) mannitol as the sole carbon source. The MIC of vancomycin against S. coelicolor M145 and its mutant derivatives were determined by growth on minimal media (MM) agar plates supplemented with 1% mannitol as the sole carbon source, and 0, 2, 4, 8, 16, 32, 64, 128, 256 or 512 μg/ml vancomycin, in combination with 0, 1, 5, 10 or 50 mM of D-Ala or L-Ala. The vanX deletion mutants have been tested with 1, 5, 10, 50 and 100 μM D-Ala and L-Ala.
# [1] = test system: S. coelicolor LAG2 (ddl suppressor mutant); assay: as above; assay type: cell-based, Streptomyces coelicolor; details: Streptomyces coelicolor
# Procedure: VanS is the sensory kinase of a two-component system formed with VanR, and it has been shown previously that certain mutations in vanS will constitutively upregulate the vancomycin resistance cluster, explaining the viability of strain LAG2 in the absence of vancomycin.
# as §1
# [2] = test system: S. coelicolor M145 ΔvanX (LAG3); assay: MIC of vancomycin on MM agar plates with added D-Ala; assay type: cell-based, Streptomyces coelicolor; details: Streptomyces coelicolor
# Text: (§2) VanX effectively eradicates the D-Ala-D-Ala dipeptide, thereby counteracting the accumulation of wild-type precursors and supporting vancomycin resistance (Lessard and Walsh, 1999; Tan et al., 2002). Therefore, a vanX null mutant was created using a similar strategy as for ddl, replacing the coding region of vanX by the apramycin resistance cassette aacC4. The mutant was created in both the parental strain S. coelicolor M145 and in its ddl suppressor mutant LAG2, generating LAG3 (M145 ΔvanX) and LAG4 (M145 Δddl ΔvanX vanS::IS466A), respectively.
# (§3) LAG4 produced 20% wt precursors prior to the addition of D-Ala.
# as §1
# [3] = test system: S. coelicolor LAG2 ΔvanX (LAG4); assay: as above; assay type: cell-based; details: Streptomyces coelicolor
# Text: as §2, §3, §1
# [4] = test system: clinical isolates of vanA-positive Enterococcus faecium; assay: MIC of vancomycin by serial dilution, isolates not named individually; assay type: cell-based; details: for MIC: Enterococcus faecium
# Procedure: Having established the important role of D-Ala in enhancing the efficacy of vancomycin against vancomycin-resistant S. coelicolor cells, next, its effect on the resistance of clinical isolates of Enterococcus faecium, which were vanA-positive strains, was assessed. MIC values were calculated by testing a serial dilution of vancomycin in the presence or absence of D-Ala in triplicate (Table 3).
# The MIC was determined by measurement of the OD600 or by visual assessment, following the Clinical Laboratory and Standards Institute (CLSI) guidelines. […] This value compares to intermediate instead of total resistance. The strains were serially diluted in a 96-well plate and growth was assayed at OD600. The steps down refer to CSLI guidelines for clinical MIC measurements.
# Five vanA-positive Enterococcus faecium strains were collected in 2011 and 2014 from patients in the Erasmus University Medical Centre, Rotterdam, The Netherlands. Presence of the vanA gene was confirmed by real-time PCR with the LIGHTCYCLER® 480 instrument (Roche Diagnostics, Almere, The Netherlands) with the primers vanA F1 and vanA R1, and the vanA probe. The resistance profile of these isolates was determined as MIC values using the VITEK II (BioMerieux) system AST-P586. To determine the MIC of vancomycin against E. faecium, cells were grown overnight on Trypticase Soy Agar (TSA) blood agar plates (Becton Dickinson, Breda, The Netherlands) and suspended in 0.9% NaCl until OD600 0.5 (±0.05). Of this suspension, 10 μl was dispensed into wells of sterile flat-bottom 96-well polystyrene tissue culture plates (Greiner Bio-One, Alphen aan Den Rijn, The Netherlands) containing serial dilutions of vancomycin in 190 μl of a 1:1 mixture of Fetal Bovine Serum (FBS) (Gibco, Bleiswijk, The Netherlands) and Iscove's Modified Dulbecco's Medium (IMDM) (without phenolred, Gibco, Bleiswijk, The Netherlands), and in the presence or absence of 50 mM D-alanine (Alfa Aesar, Ward Hill, Mass., USA). Plates were incubated for 18-24 hours at 37° C. and MIC values determined visually following the CLSI guidelines, or by spectrophotometer at 600 nm.
compound,measurement,setting,value
CN[C@H](CC(C)C)C(=O)N[C@H]1C(=O)N[C@@H](CC(N)=O)C(=O)N[C@H]2C(=O)N[C@H]3C(=O)N[C@H](C(=O)N[C@H](C(=O)O)c4cc(O)cc(O)c4-c4cc3ccc4O)[C@H](O)c3ccc(c(Cl)c3)Oc3cc2cc(c3O[C@@H]2O[C@H](CO)[C@@H](O)[C@H](O)[C@H]2O[C@H]2C[C@](C)(N)[C@H](O)[C@H](C)O2)Oc2ccc(cc2Cl)[C@H]1O [vancomycin],reduction of the MIC of vancomycin,"S. coelicolor M145; M145, 10 mM D-Ala",4 fold
same,reduction of the MIC of vancomycin,"S. coelicolor M145; M145, 50 mM D-Ala",32 fold
same,MIC,"S. coelicolor M145; M145, read-out: MIC of vancomycin, M145, 0 mM D-Ala",128 µg/mL
same,MIC,"S. coelicolor M145; M145, read-out: MIC of vancomycin, M145, 5 mM D-Ala",32 µg/mL
same,MIC,"S. coelicolor M145; M145, read-out: MIC of vancomycin, M145, 10 mM D-Ala",32 µg/mL
same,MIC,"S. coelicolor M145; M145, read-out: MIC of vancomycin, M145, 50 mM D-Ala",4 µg/mL
same,MIC,"[1]; LAG2, 0 mM D-Ala",128 µg/mL
same,MIC,"[1]; LAG2, 5 mM D-Ala",64 µg/mL
same,MIC,"[1]; LAG2, 10 mM D-Ala",32 µg/mL
same,MIC,"[1]; LAG2, 50 mM D-Ala",4 µg/mL
same,MIC,"[2]; read-out: MIC of vancomycin, M145 ΔvanX, 0 μM D-Ala",32 µg/mL
same,MIC,"[2]; read-out: MIC of vancomycin, M145 ΔvanX, 10 μM D-Ala",16 µg/mL
same,MIC,"[2]; read-out: MIC of vancomycin, M145 ΔvanX, 50 μM D-Ala",1 µg/mL
same,MIC,"[2]; read-out: MIC of vancomycin, M145 ΔvanX, 50 μg/ml D-Ala",1 µg/mL
same,MIC,"[2]; read-out: MIC of vancomycin, M145 ΔvanX, 100 μM D-Ala",1 µg/mL
same,MIC,"[3]; read-out: MIC of vancomycin, LAG2 ΔvanX, 0 μM D-Ala",64 µg/mL
same,MIC,"[3]; read-out: MIC of vancomycin, LAG2 ΔvanX, 10 μM D-Ala",32 µg/mL
same,MIC,"[3]; read-out: MIC of vancomycin, LAG2 ΔvanX, 50 μM D-Ala",8 µg/mL
same,MIC,"[3]; read-out: MIC of vancomycin, LAG2 ΔvanX, 100 μM D-Ala",2 µg/mL
same,MIC,"[4]; worst cases, 50 mM D-Ala",256 µg/mL
same,MIC,"[4]; worst cases, without D-Ala",4100 µg/mL
same,reduction of MIC of vancomycin in dilution steps,"[4]; all clinical isolates, 50 mM D-Ala",4-7 dilution steps
same,MIC of vancomycin,"[4]; worst cases, 50 mM D-Ala",128 µg/mL
